Reference: PubChem BioAssay AID493145 (Sanford-Burnham Center for Chemical Genomics, 2011)
Where “and” joins values, the source holds several entries; their conditions need not be identical. Identical values can stand only once. Calls of active or inactive are those of the source. How the calls were made is not given here.

target: Intestinal-type alkaline phosphatase (Homo sapiens) (UniProt P09923); assay: activation of human intestinal phosphatase enzyme – biochemical, human enzyme for mouse series, mouse IAP activator project, SAR follow-up (AID 493145); conditions: purified human intestinal alkaline phosphatase, enzymatic activity
Sequence (P09923 whole entry, looked up): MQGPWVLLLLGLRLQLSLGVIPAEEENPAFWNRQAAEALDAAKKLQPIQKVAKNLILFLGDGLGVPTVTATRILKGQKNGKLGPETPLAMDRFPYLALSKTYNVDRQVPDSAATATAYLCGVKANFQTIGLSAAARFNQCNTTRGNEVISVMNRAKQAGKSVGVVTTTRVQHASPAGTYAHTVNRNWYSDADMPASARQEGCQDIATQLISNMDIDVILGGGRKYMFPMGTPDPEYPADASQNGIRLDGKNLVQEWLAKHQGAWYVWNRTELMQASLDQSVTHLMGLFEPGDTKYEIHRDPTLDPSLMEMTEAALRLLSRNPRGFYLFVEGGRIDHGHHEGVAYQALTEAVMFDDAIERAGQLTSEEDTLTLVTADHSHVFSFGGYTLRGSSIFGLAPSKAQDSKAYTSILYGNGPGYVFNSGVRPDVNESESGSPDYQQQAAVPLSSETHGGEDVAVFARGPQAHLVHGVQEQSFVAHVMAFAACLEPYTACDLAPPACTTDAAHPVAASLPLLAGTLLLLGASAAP

Compound	EC50
CCN(CC)C(=O)CSc1sc2c(O)cc(=O)[nH]c2c1C#N	> 100 µM (inactive)
O=C(CN1C(=O)/C(=C/c2ccco2)SC1=S)NCCc1ccc(O)cc1	> 100 µM (inactive)
COC(=O)c1ccc(C)c(NC(=O)CSc2sc3c(O)cc(=O)[nH]c3c2C#N)c1	> 100 µM (inactive)
O=C(N/N=C/c1ccsc1)c1cc(O)c(O)c(O)c1	> 100 µM (inactive)
COc1ccc(OC)c(NC(=O)CCNS(=O)(=O)c2ccc3[nH]c(=O)oc3c2)c1	> 100 µM (inactive)
O=C1/C(=C/c2ccco2)SC(=S)N1C1CCS(=O)(=O)C1 (configuration not stated)	42.6 µM
O=C(CN1C(=O)/C(=C\c2ccco2)SC1=S)Nc1ccccc1C(=O)O	> 100 µM (inactive)
CCOc1ccccc1CNC(=O)CCNS(=O)(=O)c1ccc2[nH]c(=O)oc2c1	> 100 µM (inactive)
Cc1ccc(NC(=O)CCNS(=O)(=O)c2ccc3[nH]c(=O)oc3c2)cc1N(C)C	> 100 µM (inactive)
Cc1ccc(/C=N/NC(=O)c2cc(O)c(O)c(O)c2)cc1	> 100 µM (inactive)
COC(=O)NNC(=O)c1cc(OC)c(OC)c(OC)c1	> 100 µM (inactive)
S=C(NCCC(c1ccccc1)c1ccccc1)Nc1ccc(Cl)cc1Cl	45.1 µM
Cc1cc(=O)oc2cc(NC(=S)NCCC(c3ccccc3)c3ccccc3)ccc12	> 100 µM (inactive)
CCOC(=O)N1CCN(S(=O)(=O)c2ccc3[nH]c(=O)oc3c2)CC1	> 100 µM (inactive)
N#Cc1cccc(NC(=O)CSc2sc3c(O)cc(=O)[nH]c3c2C#N)c1	> 100 µM (inactive)
COc1cccc(CNC(=O)CCNS(=O)(=O)c2ccc3[nH]c(=O)oc3c2)c1	> 100 µM (inactive)
O=C(C1CCN(S(=O)(=O)c2ccc3[nH]c(=O)oc3c2)CC1)N1CC=C(c2ccccc2)CC1	> 100 µM (inactive)
COc1cc(C(=O)NNC(=S)NC(=O)c2ccccc2C)cc(OC)c1OC	21.4 µM
NS(=O)(=O)c1ccc(-c2ccc(/C=C3\SC(=S)N(C4CCS(=O)(=O)C4)C3=O)o2)cc1 (configuration not stated)	> 100 µM (inactive)

Compound	EC50
CC(C)N1CCC(=NNC(=O)c2cc(O)c(O)c(O)c2)CC1	> 100 µM (inactive) and 66.6 µM
N#Cc1c(SCC(=O)Nc2nc3ccc(Br)cc3s2)sc2c(O)cc(=O)[nH]c12	> 100 µM (inactive)
CCOc1ccc2nc(NC(=O)CN(C)S(=O)(=O)c3ccc4[nH]c(=O)oc4c3)sc2c1	> 100 µM (inactive)
N#Cc1c(SCC(=O)Nc2ccc(Cl)cc2Cl)sc2c(O)cc(=O)[nH]c12	> 100 µM (inactive)
COc1cc([N+](=O)[O-])ccc1NC(=S)NCCC(c1ccccc1)c1ccccc1	> 100 µM (inactive)
Cc1ccc(C)c(NC(=O)CCNS(=O)(=O)c2ccc3[nH]c(=O)oc3c2)c1	> 100 µM (inactive)
COc1ccc(OC)c(NC(=O)CSc2sc3c(O)cc(=O)[nH]c3c2C#N)c1	> 100 µM (inactive)
CC(C(=O)Nc1ccccc1C(=O)O)N1C(=O)/C(=C\c2ccco2)SC1=S (configuration not stated)	> 100 µM (inactive)
Cc1ccc(Cl)cc1NC(=O)CSc1sc2c(O)cc(=O)[nH]c2c1C#N	> 100 µM (inactive)
CC(C)NC(=O)CSc1sc2c(O)cc(=O)[nH]c2c1C#N	> 100 µM (inactive)
O=C(c1ccco1)N1CCN(S(=O)(=O)c2ccc3[nH]c(=O)oc3c2)CC1	> 100 µM (inactive)
O=C(CN1C(=O)/C(=C/c2ccco2)SC1=S)Nc1ccc(O)c(C(=O)O)c1	> 100 µM (inactive)
O=S(=O)(Nc1ncccn1)c1ccc(NC(=S)NCCC(c2ccccc2)c2ccccc2)cc1	> 100 µM (inactive)
Cc1cc(NC(=O)CSc2sc3c(O)cc(=O)[nH]c3c2C#N)ccc1Br	> 100 µM (inactive)
O=C(CCNS(=O)(=O)c1ccc2[nH]c(=O)oc2c1)Nc1ccccc1	> 100 µM (inactive)
CCOC(=O)N1CCC(NC(=O)CSc2sc3c(O)cc(=O)[nH]c3c2C#N)CC1	> 100 µM (inactive)
Cc1ccc(NC(=O)CSc2sc3c(O)cc(=O)[nH]c3c2C#N)c(F)c1	> 100 µM (inactive)
N#Cc1cccc(NC(=O)CCNS(=O)(=O)c2ccc3[nH]c(=O)oc3c2)c1	> 100 µM (inactive)

Other lines, results leading:

EC50	Compound
> 100 µM (inactive)	CCOc1ccccc1NC(=O)CCNS(=O)(=O)c1ccc2[nH]c(=O)oc2c1
> 100 µM (inactive)	CCc1nnc(NC(=O)CSc2sc3c(O)cc(=O)[nH]c3c2C#N)s1
> 100 µM (inactive)	O=C(NNC(=O)c1cc(O)c(O)c(O)c1)NC1CCCCC1
> 100 µM (inactive)	O=C(CCNS(=O)(=O)c1ccc2[nH]c(=O)oc2c1)Nc1cccc(-c2ccno2)c1
> 100 µM (inactive)	O=C(NCCc1ccc(Cl)cc1)C1CCCN(S(=O)(=O)c2ccc3[nH]c(=O)oc3c2)C1 (configuration not stated)
> 100 µM (inactive)	O=C(CN1C(=O)/C(=C\c2ccco2)SC1=S)Nc1cccc(C(=O)O)c1
> 100 µM (inactive)	CC(C(=O)NCCc1ccc(O)c(O)c1)N1C(=O)/C(=C\c2ccco2)SC1=S (configuration not stated)
> 100 µM (inactive)	CC(C(=O)Nc1cccc(C(=O)O)c1)N1C(=O)/C(=C\c2ccco2)SC1=S (configuration not stated)
> 100 µM (inactive)	O=C(N/N=C/c1ccc(F)cc1)c1cc(O)c(O)c(O)c1
> 100 µM (inactive)	Cc1csc(NC(=O)CSc2sc3c(O)cc(=O)[nH]c3c2C#N)n1
> 100 µM (inactive)	N#Cc1c(SCC(=O)Nc2nc3ccccc3s2)sc2c(O)cc(=O)[nH]c12
> 100 µM (inactive)	Cc1ccc(/C=C2\SC(=S)N(C3CCS(=O)(=O)C3)C2=O)o1 (configuration not stated)
> 100 µM (inactive)	CCCSc1nnc(NC(=O)CSc2sc3c(O)cc(=O)[nH]c3c2C#N)s1
> 100 µM (inactive)	COc1ccc(NC(=O)CCNS(=O)(=O)c2ccc3[nH]c(=O)oc3c2)cc1Cl
> 100 µM (inactive)	O=C(N/N=C/c1ccco1)c1cc(O)c(O)c(O)c1
> 100 µM (inactive)	O=C(CCN1C(=O)/C(=C/c2ccco2)SC1=S)Nc1ccc(O)cc1C(=O)O
> 100 µM (inactive)	COc1ccc(NC(=O)C(CC(C)C)NS(=O)(=O)c2ccc3[nH]c(=O)oc3c2)cc1 (configuration not stated)
> 100 µM (inactive)	Cc1ccc(NC(=O)CCNS(=O)(=O)c2ccc3[nH]c(=O)oc3c2)cc1F
30.6 µM	O=C(CN1C(=O)/C(=C/c2ccco2)SC1=S)NC1CCS(=O)(=O)C1 (configuration not stated)
24 µM	COc1cc(C(=O)NNC(=O)c2n[nH]c3ccccc23)cc(OC)c1OC
> 100 µM (inactive)	Cc1ccc(NC(=O)CCNS(=O)(=O)c2ccc3[nH]c(=O)oc3c2)c(C)c1
82.9 µM	CCN(C(=O)C(C)N1C(=O)/C(=C/c2ccco2)SC1=S)C1CCS(=O)(=O)C1 (configuration not stated)
> 100 µM (inactive)	COc1ccc(CNC(=O)CSc2sc3c(O)cc(=O)[nH]c3c2C#N)cc1OC
> 100 µM (inactive)	CCOc1cccc(NC(=O)CSc2sc3c(O)cc(=O)[nH]c3c2C#N)c1
> 100 µM (inactive)	COc1cc(C(=O)NNC(=O)C2CC2)cc(OC)c1OC
> 100 µM (inactive)	CC(C)c1ccc(NC(=O)CCNS(=O)(=O)c2ccc3[nH]c(=O)oc3c2)cc1
> 100 µM (inactive)	COc1ccccc1CNC(=O)CCNS(=O)(=O)c1ccc2[nH]c(=O)oc2c1
> 100 µM (inactive)	O=C(N/N=C/c1ccccc1F)c1cc(O)c(O)c(O)c1

EC50	Compound
> 100 µM (inactive)	O=C(CN1C(=O)/C(=C\c2ccco2)SC1=S)Nc1ccc(O)cc1C(=O)O
> 100 µM (inactive)	O=C(CCN1C(=O)/C(=C/c2ccco2)SC1=S)Nc1ccc(C(=O)O)c(O)c1
> 100 µM (inactive)	COc1ccccc1NC(=O)CCNS(=O)(=O)c1ccc2[nH]c(=O)oc2c1
> 100 µM (inactive)	COc1cc(Cl)c(C)cc1NC(=O)CSc1sc2c(O)cc(=O)[nH]c2c1C#N
> 100 µM (inactive)	COc1ccccc1NC(=O)CSc1sc2c(O)cc(=O)[nH]c2c1C#N
> 100 µM (inactive)	COc1cccc(NC(=O)CN(C)S(=O)(=O)c2ccc3[nH]c(=O)oc3c2)c1
> 100 µM (inactive)	N#Cc1c(SCC(=O)NCc2ccc3c(c2)OCO3)sc2c(O)cc(=O)[nH]c12
> 100 µM (inactive)	O=C(CN1C(=O)/C(=C/c2ccco2)SC1=S)Nc1cccc(C(=O)O)c1
> 100 µM (inactive)	O=C(N/N=C/C1CC2CCC1C2)c1cc(O)c(O)c(O)c1 (configuration not stated)
> 100 µM (inactive)	O=C(CN1C(=O)/C(=C\c2ccco2)SC1=S)Nc1ccc(C(=O)O)cc1
> 100 µM (inactive)	O=C(CCCN1C(=O)/C(=C/c2ccco2)SC1=S)Nc1ccccc1
> 100 µM (inactive)	O=C(CN1C(=O)/C(=C/c2ccco2)SC1=S)Nc1ccc(C(=O)O)c(O)c1
> 100 µM (inactive)	COc1ccc(NC(=O)CSc2sc3c(O)cc(=O)[nH]c3c2C#N)c(OC)c1
> 100 µM (inactive)	O=C(CN1C(=O)/C(=C/c2ccco2)SC1=S)N[C@@H]1CSC[C@@H]1O
66.4 µM	FC(F)(F)c1cccc(NC(=S)NCCC(c2ccccc2)c2ccccc2)c1
> 100 µM (inactive)	CCc1ccc(NC(=O)CN(C)S(=O)(=O)c2ccc3[nH]c(=O)oc3c2)cc1
13.5 µM	COc1cc(C(=O)NNc2nc3cc4c(cc3s2)OCO4)cc(OC)c1OC
> 100 µM (inactive)	O=C(CCN1C(=O)/C(=C\c2ccco2)SC1=S)Nc1ccc(C(=O)O)c(O)c1
> 100 µM (inactive)	COc1cccc(/C=N/NC(=O)c2cc(O)c(O)c(O)c2)c1
> 100 µM (inactive)	CN(C(=O)CN1C(=O)/C(=C\c2ccco2)SC1=S)C1CCS(=O)(=O)C1 (configuration not stated)
> 100 µM (inactive)	Cc1ccc(NC(=O)CCNS(=O)(=O)c2ccc3[nH]c(=O)oc3c2)cc1
> 100 µM (inactive)	N#Cc1c(SCC(=O)Nc2cccc(F)c2)sc2c(O)cc(=O)[nH]c12
> 100 µM (inactive)	N#Cc1c(SCC(=O)Nc2ccc(C(F)(F)F)cc2)sc2c(O)cc(=O)[nH]c12
> 100 µM (inactive)	C/C(=N\NC(=O)c1cc(O)c(O)c(O)c1)c1ccncc1
> 100 µM (inactive)	O=C(O)CC(C(=O)O)N1C(=O)/C(=C/c2ccc(-c3nc4ccccc4s3)o2)SC1=S (configuration not stated)
> 100 µM (inactive)	CC(C(=O)NCCc1ccc(O)cc1)N1C(=O)/C(=C/c2ccco2)SC1=S (configuration not stated)
> 100 µM (inactive)	COc1ccc(CNC(=O)CSc2sc3c(O)cc(=O)[nH]c3c2C#N)cc1
